Reference: patent US20240158446A1, “CYCLIC COMPOUND HAVING SELECTIVE INHIBITORY ACTION ON KRAS OVER HRAS AND NRAS” (CHUGAI SEIYAKU KABUSHIKI KAISHA, priority 2021, published 2024)
pKd: −log10 of the molar value. Where two headings read alike, the source gives them in different places. *1 amine or outer side, *2 acyl side, *3 side chain or, on linkers, in order; H or OH if unused. Where a SMILES comes first, the peptide text is derived from it. Bridges are numbered along the chain shown (N, C = ends). [ ]: non-standard residue; d: D form. The star is where a group is joined. hPhe(3,5-F2-4-CF3) = N[C@@H](CCc1cc(F)c(C(F)(F)F)c(F)c1)C(=O)O; hPhe(3-Cl-4-CF3) = N[C@@H](CCc1ccc(C(F)(F)F)c(Cl)c1)C(=O)O; X36 = Cc1ccc(C[C@@H](C(=O)[*:2])N(CCC(F)(F)F)[*:1])cc1; NPrPhe(4-CF3) = CCCN[C@@H](Cc1ccc(C(F)(F)F)cc1)C(=O)O; X9 = CCCN([C@@H](Cc1ccc(F)cc1)C(=O)[*:2])[*:1]; NMeGly(cPent) = CN[C@H](C(=O)O)C1CCCC1; Pro(4,4-F2) = O=C(O)[C@@H]1CC(F)(F)CN1; Ac4c(3,3-F2) = NC1(C(=O)O)CC(F)(F)C1; Gly(cPent) = N[C@H](C(=O)O)C1CCCC1; NMeD = CN[C@@H](CC(=O)O)C(=O)O; NMeL = CN[C@@H](CC(C)C)C(=O)O; Morpholide = C1CN(*)CCO1; NMeA = CN[C@@H](C)C(=O)O; Ac5c = NC1(C(=O)O)CCCC1; Aze = O=C(O)[C@@H]1CCN1; Ac4c = NC1(C(=O)O)CCC1; NEtG = CCNCC(=O)O; Sar = CNCC(=O)O

Tests used:
[1] = biological target: GDP-bound NRAS wild-type protein (Homo sapiens, UniProt P01111); test: Binding to NRAS by surface plasmon resonance (SPR), Single Cycle Kinetics
[2] = biological target: GDP-bound HRAS wild-type protein (Homo sapiens, UniProt P01112); test: Binding to HRAS by surface plasmon resonance (SPR), Single Cycle Kinetics
[3] = biological target: GDP-bound KRAS wild-type protein (Homo sapiens, UniProt P01116); test: Binding to KRAS by surface plasmon resonance (SPR), Single Cycle Kinetics; conditions: GDP-bound KRAS wild-type protein, read-out: KRAS KD
[4] = SPR, GDP-bound NRAS wild-type protein vs GDP-bound KRAS wild-type protein
[5] = SPR, GDP-bound HRAS wild-type protein vs GDP-bound KRAS wild-type protein
[6] = SPR Single Cycle Kinetics, 1:1 binding model

Sequence of GDP-bound HRAS wild-type protein (P01112 whole entry): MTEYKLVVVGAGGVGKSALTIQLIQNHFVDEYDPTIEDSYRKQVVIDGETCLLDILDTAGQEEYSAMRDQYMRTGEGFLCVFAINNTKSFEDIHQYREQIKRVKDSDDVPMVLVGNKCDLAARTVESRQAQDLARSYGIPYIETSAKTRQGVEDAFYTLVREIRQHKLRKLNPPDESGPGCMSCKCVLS
Sequence of GDP-bound NRAS wild-type protein (P01111 whole entry): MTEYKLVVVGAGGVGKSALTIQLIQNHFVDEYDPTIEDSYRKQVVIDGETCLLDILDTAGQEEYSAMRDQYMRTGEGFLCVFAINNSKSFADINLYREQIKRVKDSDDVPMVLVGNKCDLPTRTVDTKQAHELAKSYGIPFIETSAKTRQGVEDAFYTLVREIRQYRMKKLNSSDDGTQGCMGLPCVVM
Sequence of GDP-bound KRAS wild-type protein (P01116 whole entry): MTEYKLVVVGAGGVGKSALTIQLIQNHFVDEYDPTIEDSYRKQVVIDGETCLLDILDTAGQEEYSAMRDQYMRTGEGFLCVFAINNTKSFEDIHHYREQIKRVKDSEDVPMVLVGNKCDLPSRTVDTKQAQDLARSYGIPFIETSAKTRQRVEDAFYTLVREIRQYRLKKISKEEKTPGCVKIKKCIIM

Row | Compound | NRAS/KRAS (ratio of KD value for NRAS to KD value for KRAS) [1, 4] | HRAS/KRAS (ratio of KD value for HRAS to KD value for KRAS) [2, 5] | pKd [3, 6] | pKd ([3]; SPR, Single Cycle Kinetics) | NRAS/KRAS (ratio of KD value with respect to GDP-bound NRAS wild-type protein to KD value with respect to KRAS) ([1]; SPR KD ratio NRAS/KRAS, class symbols) | HRAS/KRAS (ratio of KD value with respect to GDP-bound HRAS wild-type protein to KD value with respect to KRAS) ([2]; SPR KD ratio HRAS/KRAS, class symbols) | NRAS/KRAS (ratio of KD value with respect to NRAS to KD value with respect to KRAS) [1, 4] | HRAS/KRAS (ratio of KD value with respect to HRAS to KD value with respect to KRAS) [2, 5]
1 | CCCN1C(=O)CN(C)C(=O)CN(CC)C(=O)[C@H](C2CCCC2)NC(=O)[C@H](CC(C)C)N(C)C(=O)C[C@@H](C(=O)N2CCOCC2)N(C)C(=O)[C@H](C2CCCC2)N(C)C(=O)C2(CCCC2)NC(=O)[C@@H]2CCCN2C(=O)[C@H](CCc2ccc(C(F)(F)F)c(Cl)c2)NC(=O)CN(C)C(=O)[C@@H]1Cc1ccc(C(F)(F)F)cc1 [PP0293] ([NMeL][Gly(cPent)][NEtG][Sar][NPrPhe(4-CF3)][Sar][hPhe(3-Cl-4-CF3)]P[Ac5c][NMeGly(cPent)][NMeD]-Morpholide; lactam N-11) | B (a compound having 3 or more and less than 10 is denoted as B) | C (A compound having a KD ratio of 0.1 or more and less than 3 is denoted as C) | 9.08 | – | – | – | – | –
2 | CCCN1C(=O)CN(C)C(=O)CN(CC)C(=O)[C@H]([C@@H](C)CC)NC(=O)[C@H](CC(C)C)N(C)C(=O)C[C@@H](C(=O)N2CCOCC2)N(C)C(=O)[C@H](C2CCCC2)N(C)C(=O)C2(CCC2)NC(=O)[C@@H]2CC(F)(F)CN2C(=O)[C@H](CCc2ccc(C(F)(F)F)c(Cl)c2)NC(=O)CN(C)C(=O)[C@@H]1Cc1ccc(C(F)(F)F)cc1 [PP0400] ([NMeL]I[NEtG][Sar][NPrPhe(4-CF3)][Sar][hPhe(3-Cl-4-CF3)][Pro(4,4-F2)][Ac4c][NMeGly(cPent)][NMeD]-Morpholide; lactam N-11) | B (a compound having 3 or more and less than 10 is denoted as B) | B (a compound having 3 or more and less than 10 is denoted as B) | 9.77 | – | – | – | – | –
3 | CC[C@H](C)[C@@H]1NC(=O)[C@H](CC(C)C)N(C)C(=O)C[C@@H](C(=O)N2CCOCC2)N(CC)C(=O)[C@H](C2CCCC2)N(C)C(=O)C2(CCC2)NC(=O)[C@@H]2[C@H](O)CCN2C(=O)[C@H](CCc2cc(F)c(C(F)(F)F)c(F)c2)NC(=O)CN(C)C(=O)[C@H](Cc2ccc(C(F)(F)F)cc2)N2CCCCC[C@@H](C2=O)N(C)C(=O)CN(C)C1=O [PP0955] | A (a compound having 10 or more and less than 20 is denoted as A) | A (a compound having 10 or more and less than 20 is denoted as A) | – | 7.72 | – | – | – | –
4 | CCC[C@H]1C(=O)N[C@@H]([C@@H](C)CC)C(=O)N(C2CC2)CC(=O)N(C)[C@H]2C/C=C\CCN(C2=O)[C@@H](Cc2ccc(C(F)(F)F)cc2)C(=O)N(C)CC(=O)N[C@@H](CCc2ccc(C(F)(F)F)c(OC)c2)C(=O)N2C[C@H](OCC)C[C@H]2C(=O)NC2(CC(C)(C)C2)C(=O)N(C)[C@@H](CC2CC2)C(=O)N(C)[C@H](C(=O)N(C)C)CC(=O)N1C [PP2815] | – | – | 8.44 | – | A (a compound having 10 or more and less than 20 is denoted as A) | A (a compound having 10 or more and less than 20 is denoted as A) | – | –
5 | CC[C@H](C)[C@@H]1NC(=O)[C@H](CC(C)C)N(C)C(=O)C[C@@H](C(=O)N2CCOCC2)N(C)C(=O)[C@H](C2CCCC2)N(C)C(=O)C2(CCCC2)NC(=O)[C@@H]2CCCN2C(=O)[C@H](CCc2ccc(C(F)(F)F)c(Cl)c2)NC(=O)CN(C)C(=O)[C@H](Cc2ccc(C)cc2)N(CCC(F)(F)F)C(=O)[C@@H]2CCN2C(=O)[C@H](C)N(C)C1=O [PP0091] ([NMeL]I[NMeA][Aze][X36][Sar][hPhe(3-Cl-4-CF3)]P[Ac5c][NMeGly(cPent)][NMeD]-Morpholide; lactam N-11) | C (A compound having a KD ratio of 0.1 or more and less than 3 is denoted as C) | B (a compound having 3 or more and less than 10 is denoted as B) | 9.64 | – | – | – | – | –
6 | CCCN1C(=O)[C@@H]2CCN2C(=O)[C@H](C)N(C)C(=O)[C@H]([C@@H](C)CC)NC(=O)[C@H](CC(C)C)N(C)C(=O)C[C@@H](C(=O)N2CCOCC2)N(C)C(=O)[C@H](C2CCCC2)N(C)C(=O)C2(CCCC2)NC(=O)[C@@H]2CCCN2C(=O)[C@H](CCc2ccc(C(F)(F)F)c(Cl)c2)NC(=O)CN(C)C(=O)[C@@H]1Cc1ccc(F)cc1 [PP0219] ([NMeL]I[NMeA][Aze][X9][Sar][hPhe(3-Cl-4-CF3)]P[Ac5c][NMeGly(cPent)][NMeD]-Morpholide; lactam N-11) | C (A compound having a KD ratio of 0.1 or more and less than 3 is denoted as C) | B (a compound having 3 or more and less than 10 is denoted as B) | 9.89 | – | – | – | – | –
7 | CC[C@H](C)[C@@H]1NC(=O)[C@H](CC(C)C)N(C)C(=O)C[C@@H](C(=O)N2CCOCC2)N(C)C(=O)[C@H](C2CCCC2)N(C)C(=O)C2(CCCC2)NC(=O)[C@@H]2CCCN2C(=O)[C@H](CCc2ccc(C(F)(F)F)c(Cl)c2)NC(=O)CN(C)C(=O)[C@H](Cc2ccc(C(F)(F)F)cc2)N2CCCC[C@@H](C2=O)N(C)C(=O)CN(C)C1=O [PP0318] | B (a compound having 3 or more and less than 10 is denoted as B) | B (a compound having 3 or more and less than 10 is denoted as B) | 10.47 | – | – | – | – | –
8 | CCO[C@@H]1C[C@H]2C(=O)NC3(CCC3)C(=O)N(C)[C@@H](C3CCCC3)C(=O)N(C)[C@H](C(=O)N3CCOCC3)CC(=O)N(C)[C@@H](CC(C)C)C(=O)N[C@@H]([C@@H](C)CC)C(=O)N3CC[C@H]3C(=O)N(C)[C@H]3CC(C)=CCN(C3=O)[C@@H](Cc3ccc(C(F)(F)F)cc3)C(=O)N(C)CC(=O)N[C@@H](CCc3cc(F)c(C(F)(F)F)c(F)c3)C(=O)N2C1 [PP1040] | C (A compound having a KD ratio of 0.1 or more and less than 3 is denoted as C) | C (A compound having a KD ratio of 0.1 or more and less than 3 is denoted as C) | – | 8.92 | – | – | – | –
9 | CC[C@H](C)[C@@H]1NC(=O)[C@H](COC)N(C)C(=O)C[C@@H](C(=O)N2CCOCC2)N(C)C(=O)[C@H](C2CCCC2)N(C)C(=O)C2(CCC2)NC(=O)[C@@H]2CCN2C(=O)[C@H](CCc2cc(F)c(C(F)(F)F)c(F)c2)NC(=O)CN(C)C(=O)[C@H](Cc2ccc(C(F)(F)F)cc2)N2CCCCC[C@@H](C2=O)N(C)C(=O)CN(C)C1=O [PP0840] | B (a compound having 3 or more and less than 10 is denoted as B) | B (a compound having 3 or more and less than 10 is denoted as B) | – | 8.30 | – | – | – | –
10 | CCO[C@@H]1C[C@H]2C(=O)NC3(CCC3)C(=O)N(C)[C@@H](C3CCCC3)C(=O)N(C)[C@H](C(=O)N(C)C)CC(=O)N(C)[C@@H](CC)C(=O)N[C@@H]([C@@H](C)CC)C(=O)N(C)[C@@H](C)C(=O)N(C)[C@H]3C/C=C\CCN(C3=O)[C@@H](Cc3ccc(C(F)(F)F)cc3)C(=O)N(C)CC(=O)N[C@@H](CCc3cc(F)c(C(F)(F)F)c(F)c3)C(=O)N2C1 [PP1054] | A (a compound having 10 or more and less than 20 is denoted as A) | B (a compound having 3 or more and less than 10 is denoted as B) | – | 8.41 | – | – | – | –
11 | CCO[C@@H]1C[C@H]2C(=O)N(C)C3(CC(C)(C)C3)C(=O)N(C)[C@@H](C3CCCC3)C(=O)N(C)[C@H](C(=O)N(C)C)CC(=O)N(C)[C@H]3CCCC/C=C/c4ccc(cc4)C[C@@H](C(=O)N(C)CC(=O)N[C@@H](CCc4ccc(Cl)c(Cl)c4)C(=O)N2C1)N1CC/C=C\C[C@@H](C1=O)N(C)C(=O)CN(C)C(=O)[C@H]([C@@H](C)CC)NC3=O [PP3062] | A (a compound having 10 or more and less than 20 is denoted as A) | A (a compound having 10 or more and less than 20 is denoted as A) | – | 10.18 | – | – | – | –
12 | CC[C@H](C)[C@@H]1NC(=O)[C@H](CC(C)C)N(C)C(=O)C[C@@H](C(=O)N2CCOCC2)N(C)C(=O)[C@H](C2CCCC2)N(C)C(=O)C2(CCCC2)NC(=O)[C@@H]2CCCN2C(=O)[C@H](CCc2ccc(C(F)(F)F)c(Cl)c2)NC(=O)CN(C)C(=O)[C@H](Cc2ccc(C)cc2)N2CCCCC[C@@H](C2=O)N(C)C(=O)CN(C)C1=O [PP0317] | B (a compound having 3 or more and less than 10 is denoted as B) | B (a compound having 3 or more and less than 10 is denoted as B) | 9.07 | – | – | – | – | –
13 | CCCN1C(=O)CN(C)C(=O)[C@@H]2CCN2C(=O)[C@H]([C@@H](C)CC)NC(=O)[C@H](CC(C)C)N(C)C(=O)C[C@@H](C(=O)N2CCOCC2)N(C)C(=O)[C@H](C2CCCC2)N(C)C(=O)C2(CC(F)(F)C2)NC(=O)[C@@H]2CCCN2C(=O)[C@H](CCc2cc(F)c(C(F)(F)F)c(F)c2)NC(=O)CN(C)C(=O)[C@@H]1Cc1ccc(C(F)(F)F)cc1 [PP0783] ([NMeL]I[Aze][Sar][NPrPhe(4-CF3)][Sar][hPhe(3,5-F2-4-CF3)]P[Ac4c(3,3-F2)][NMeGly(cPent)][NMeD]-Morpholide; lactam N-11) | – | – | 9.07 | – | – | – | B (a compound having 3 or more and less than 10 is denoted as B) | B (a compound having 3 or more and less than 10 is denoted as B)
